Test results reported in ChEMBL document CHEMBL4507291 (2021).

Experiments:
[1] = target: Neuropeptide Y receptor type 1 (Homo sapiens) (UniProt P25929); experiment: Inhibition of Neuropeptide Y Y1 at 10 µM in the Eurofins-Panlabs radioligand binding assay (Eurofins_assay_257010); details: Compound concentration 10.0 uM
[2] = target: DNA-dependent protein kinase catalytic subunit (Homo sapiens) (UniProt P78527); experiment: DNA-PK Kinase screen; details: Compound concentration 1.0 uM
[3] = target: Ephrin type-A receptor 5 (Homo sapiens) (UniProt P54756); experiment: EPHA5 Kinase screen; details: Compound concentration 1.0 uM
[4] = target: LIM domain kinase 1 (Homo sapiens) (UniProt P53667); experiment: LIMK1 Kinase screen; details: Compound concentration 1.0 uM
[5] = target: MAP kinase-interacting serine/threonine-protein kinase 2 (Homo sapiens) (UniProt Q9HBH9); experiment: MKNK2 (MNK2) Kinase screen; details: Compound concentration 1.0 uM
MAP kinase-interacting serine/threonine-protein kinase 2 (Homo sapiens), sequence (Q9HBH9 whole entry, looked up): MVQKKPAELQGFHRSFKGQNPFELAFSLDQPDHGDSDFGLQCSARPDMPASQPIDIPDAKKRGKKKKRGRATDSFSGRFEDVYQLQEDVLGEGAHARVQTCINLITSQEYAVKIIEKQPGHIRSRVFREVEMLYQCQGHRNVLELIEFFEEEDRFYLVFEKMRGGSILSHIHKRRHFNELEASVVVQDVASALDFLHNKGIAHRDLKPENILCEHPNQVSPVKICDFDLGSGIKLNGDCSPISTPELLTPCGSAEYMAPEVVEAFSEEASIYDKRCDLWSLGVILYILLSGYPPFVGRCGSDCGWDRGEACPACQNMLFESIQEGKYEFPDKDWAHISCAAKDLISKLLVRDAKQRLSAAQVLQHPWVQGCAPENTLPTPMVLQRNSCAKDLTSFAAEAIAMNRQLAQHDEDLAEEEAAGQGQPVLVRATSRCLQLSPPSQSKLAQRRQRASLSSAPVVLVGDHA

[6] = target: T1, Muscle, skeletal receptor tyrosine-protein kinase (Homo sapiens) (UniProt O15146); experiment: MUSK Kinase screen; details: Compound concentration 1.0 uM
T1 sequence (whole entry): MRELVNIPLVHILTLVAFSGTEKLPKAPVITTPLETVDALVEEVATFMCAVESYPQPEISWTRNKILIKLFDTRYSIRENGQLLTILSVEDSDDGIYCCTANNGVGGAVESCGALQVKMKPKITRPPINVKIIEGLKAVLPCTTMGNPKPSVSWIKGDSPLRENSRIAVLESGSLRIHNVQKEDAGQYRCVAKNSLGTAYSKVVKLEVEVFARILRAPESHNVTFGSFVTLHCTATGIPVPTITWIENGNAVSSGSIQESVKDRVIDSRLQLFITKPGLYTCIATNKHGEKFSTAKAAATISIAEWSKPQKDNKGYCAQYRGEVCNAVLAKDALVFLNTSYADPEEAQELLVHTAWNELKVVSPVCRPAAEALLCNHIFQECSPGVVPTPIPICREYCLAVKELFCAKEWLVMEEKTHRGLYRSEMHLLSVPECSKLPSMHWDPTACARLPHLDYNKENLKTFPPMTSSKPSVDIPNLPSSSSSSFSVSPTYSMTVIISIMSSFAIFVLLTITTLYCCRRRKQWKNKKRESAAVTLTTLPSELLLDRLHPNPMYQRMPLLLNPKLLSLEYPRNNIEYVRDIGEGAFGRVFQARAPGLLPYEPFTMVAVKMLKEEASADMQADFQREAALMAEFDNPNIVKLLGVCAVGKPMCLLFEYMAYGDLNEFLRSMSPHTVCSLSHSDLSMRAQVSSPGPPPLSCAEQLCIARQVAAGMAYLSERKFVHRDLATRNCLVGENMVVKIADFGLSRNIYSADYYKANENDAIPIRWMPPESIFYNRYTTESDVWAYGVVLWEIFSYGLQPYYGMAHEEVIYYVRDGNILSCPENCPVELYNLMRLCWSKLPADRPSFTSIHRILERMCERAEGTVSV

[7] = target: Serine/threonine-protein kinase PLK2 (Homo sapiens) (UniProt Q9NYY3); experiment: PLK2 Kinase screen; details: Compound concentration 1.0 uM
[8] = target: T2, cAMP-dependent protein kinase catalytic subunit PRKX (Homo sapiens) (UniProt P51817); experiment: PRKX Kinase screen; details: Compound concentration 1.0 uM
T2 sequence (whole entry): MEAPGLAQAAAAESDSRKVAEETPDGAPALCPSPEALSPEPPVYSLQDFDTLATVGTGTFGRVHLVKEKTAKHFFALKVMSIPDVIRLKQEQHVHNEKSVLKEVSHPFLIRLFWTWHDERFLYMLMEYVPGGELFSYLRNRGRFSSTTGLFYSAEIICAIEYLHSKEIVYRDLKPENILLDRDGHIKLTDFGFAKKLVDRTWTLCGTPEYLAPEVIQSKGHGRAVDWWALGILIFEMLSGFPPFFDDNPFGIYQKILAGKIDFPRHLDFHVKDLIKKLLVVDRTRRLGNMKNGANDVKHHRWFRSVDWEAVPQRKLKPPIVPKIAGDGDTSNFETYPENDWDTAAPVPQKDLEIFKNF

[9] = target: Rho-associated protein kinase 1 (Homo sapiens) (UniProt Q13464); experiment: ROCK1 Kinase screen; details: Compound concentration 1.0 uM
[10] = target: T3, Tyrosine-protein kinase receptor TYRO3 (Homo sapiens) (UniProt Q06418); experiment: TYRO3 (RSE) Kinase screen; details: Compound concentration 1.0 uM
T3 sequence (whole entry): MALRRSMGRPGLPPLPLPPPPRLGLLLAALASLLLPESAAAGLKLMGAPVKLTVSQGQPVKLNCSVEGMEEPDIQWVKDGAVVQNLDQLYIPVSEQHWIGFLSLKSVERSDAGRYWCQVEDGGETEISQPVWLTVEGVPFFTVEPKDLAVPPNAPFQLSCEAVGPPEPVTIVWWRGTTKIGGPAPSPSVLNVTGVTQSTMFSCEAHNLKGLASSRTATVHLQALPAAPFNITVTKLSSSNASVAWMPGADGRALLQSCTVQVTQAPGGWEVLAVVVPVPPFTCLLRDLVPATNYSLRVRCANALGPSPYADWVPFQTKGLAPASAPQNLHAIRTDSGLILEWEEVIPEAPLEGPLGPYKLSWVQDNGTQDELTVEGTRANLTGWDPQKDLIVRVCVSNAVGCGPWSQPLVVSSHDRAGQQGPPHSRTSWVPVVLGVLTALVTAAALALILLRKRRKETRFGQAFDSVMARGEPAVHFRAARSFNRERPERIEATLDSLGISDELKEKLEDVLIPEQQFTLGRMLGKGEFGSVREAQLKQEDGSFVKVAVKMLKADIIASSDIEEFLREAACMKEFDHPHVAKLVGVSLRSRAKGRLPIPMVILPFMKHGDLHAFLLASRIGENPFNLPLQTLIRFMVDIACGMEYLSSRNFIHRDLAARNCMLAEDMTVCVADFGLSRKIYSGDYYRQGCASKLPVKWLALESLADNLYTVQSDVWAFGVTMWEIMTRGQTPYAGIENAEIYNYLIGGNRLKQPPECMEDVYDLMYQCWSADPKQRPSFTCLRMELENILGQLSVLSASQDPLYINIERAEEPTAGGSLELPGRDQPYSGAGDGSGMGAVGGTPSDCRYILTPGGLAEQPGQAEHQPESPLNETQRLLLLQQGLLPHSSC

[11] = target: Cannabinoid receptor 1 (Homo sapiens) (UniProt P21554); details: Compound concentration 10.0 uM
Cannabinoid receptor 1 (Homo sapiens), sequence (P21554 whole entry): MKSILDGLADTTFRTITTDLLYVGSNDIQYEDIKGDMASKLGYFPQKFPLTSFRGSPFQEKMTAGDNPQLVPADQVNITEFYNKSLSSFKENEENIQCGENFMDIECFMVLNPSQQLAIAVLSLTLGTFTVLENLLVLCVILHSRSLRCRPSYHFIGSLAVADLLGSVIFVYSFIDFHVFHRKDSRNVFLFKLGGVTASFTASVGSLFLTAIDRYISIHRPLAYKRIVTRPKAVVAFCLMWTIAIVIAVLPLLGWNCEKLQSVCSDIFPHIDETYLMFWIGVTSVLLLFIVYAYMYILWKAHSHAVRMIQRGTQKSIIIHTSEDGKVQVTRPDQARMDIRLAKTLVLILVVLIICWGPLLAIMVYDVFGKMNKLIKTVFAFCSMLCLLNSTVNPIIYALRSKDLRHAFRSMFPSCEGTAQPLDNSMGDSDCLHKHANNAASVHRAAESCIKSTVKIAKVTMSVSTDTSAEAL

[12] = target: Glucocorticoid receptor (Homo sapiens) (UniProt P04150); details: Compound concentration 10.0 uM

Measured: inhibition

DNA-dependent protein kinase catalytic subunit (Homo sapiens), sequence (P78527 whole entry): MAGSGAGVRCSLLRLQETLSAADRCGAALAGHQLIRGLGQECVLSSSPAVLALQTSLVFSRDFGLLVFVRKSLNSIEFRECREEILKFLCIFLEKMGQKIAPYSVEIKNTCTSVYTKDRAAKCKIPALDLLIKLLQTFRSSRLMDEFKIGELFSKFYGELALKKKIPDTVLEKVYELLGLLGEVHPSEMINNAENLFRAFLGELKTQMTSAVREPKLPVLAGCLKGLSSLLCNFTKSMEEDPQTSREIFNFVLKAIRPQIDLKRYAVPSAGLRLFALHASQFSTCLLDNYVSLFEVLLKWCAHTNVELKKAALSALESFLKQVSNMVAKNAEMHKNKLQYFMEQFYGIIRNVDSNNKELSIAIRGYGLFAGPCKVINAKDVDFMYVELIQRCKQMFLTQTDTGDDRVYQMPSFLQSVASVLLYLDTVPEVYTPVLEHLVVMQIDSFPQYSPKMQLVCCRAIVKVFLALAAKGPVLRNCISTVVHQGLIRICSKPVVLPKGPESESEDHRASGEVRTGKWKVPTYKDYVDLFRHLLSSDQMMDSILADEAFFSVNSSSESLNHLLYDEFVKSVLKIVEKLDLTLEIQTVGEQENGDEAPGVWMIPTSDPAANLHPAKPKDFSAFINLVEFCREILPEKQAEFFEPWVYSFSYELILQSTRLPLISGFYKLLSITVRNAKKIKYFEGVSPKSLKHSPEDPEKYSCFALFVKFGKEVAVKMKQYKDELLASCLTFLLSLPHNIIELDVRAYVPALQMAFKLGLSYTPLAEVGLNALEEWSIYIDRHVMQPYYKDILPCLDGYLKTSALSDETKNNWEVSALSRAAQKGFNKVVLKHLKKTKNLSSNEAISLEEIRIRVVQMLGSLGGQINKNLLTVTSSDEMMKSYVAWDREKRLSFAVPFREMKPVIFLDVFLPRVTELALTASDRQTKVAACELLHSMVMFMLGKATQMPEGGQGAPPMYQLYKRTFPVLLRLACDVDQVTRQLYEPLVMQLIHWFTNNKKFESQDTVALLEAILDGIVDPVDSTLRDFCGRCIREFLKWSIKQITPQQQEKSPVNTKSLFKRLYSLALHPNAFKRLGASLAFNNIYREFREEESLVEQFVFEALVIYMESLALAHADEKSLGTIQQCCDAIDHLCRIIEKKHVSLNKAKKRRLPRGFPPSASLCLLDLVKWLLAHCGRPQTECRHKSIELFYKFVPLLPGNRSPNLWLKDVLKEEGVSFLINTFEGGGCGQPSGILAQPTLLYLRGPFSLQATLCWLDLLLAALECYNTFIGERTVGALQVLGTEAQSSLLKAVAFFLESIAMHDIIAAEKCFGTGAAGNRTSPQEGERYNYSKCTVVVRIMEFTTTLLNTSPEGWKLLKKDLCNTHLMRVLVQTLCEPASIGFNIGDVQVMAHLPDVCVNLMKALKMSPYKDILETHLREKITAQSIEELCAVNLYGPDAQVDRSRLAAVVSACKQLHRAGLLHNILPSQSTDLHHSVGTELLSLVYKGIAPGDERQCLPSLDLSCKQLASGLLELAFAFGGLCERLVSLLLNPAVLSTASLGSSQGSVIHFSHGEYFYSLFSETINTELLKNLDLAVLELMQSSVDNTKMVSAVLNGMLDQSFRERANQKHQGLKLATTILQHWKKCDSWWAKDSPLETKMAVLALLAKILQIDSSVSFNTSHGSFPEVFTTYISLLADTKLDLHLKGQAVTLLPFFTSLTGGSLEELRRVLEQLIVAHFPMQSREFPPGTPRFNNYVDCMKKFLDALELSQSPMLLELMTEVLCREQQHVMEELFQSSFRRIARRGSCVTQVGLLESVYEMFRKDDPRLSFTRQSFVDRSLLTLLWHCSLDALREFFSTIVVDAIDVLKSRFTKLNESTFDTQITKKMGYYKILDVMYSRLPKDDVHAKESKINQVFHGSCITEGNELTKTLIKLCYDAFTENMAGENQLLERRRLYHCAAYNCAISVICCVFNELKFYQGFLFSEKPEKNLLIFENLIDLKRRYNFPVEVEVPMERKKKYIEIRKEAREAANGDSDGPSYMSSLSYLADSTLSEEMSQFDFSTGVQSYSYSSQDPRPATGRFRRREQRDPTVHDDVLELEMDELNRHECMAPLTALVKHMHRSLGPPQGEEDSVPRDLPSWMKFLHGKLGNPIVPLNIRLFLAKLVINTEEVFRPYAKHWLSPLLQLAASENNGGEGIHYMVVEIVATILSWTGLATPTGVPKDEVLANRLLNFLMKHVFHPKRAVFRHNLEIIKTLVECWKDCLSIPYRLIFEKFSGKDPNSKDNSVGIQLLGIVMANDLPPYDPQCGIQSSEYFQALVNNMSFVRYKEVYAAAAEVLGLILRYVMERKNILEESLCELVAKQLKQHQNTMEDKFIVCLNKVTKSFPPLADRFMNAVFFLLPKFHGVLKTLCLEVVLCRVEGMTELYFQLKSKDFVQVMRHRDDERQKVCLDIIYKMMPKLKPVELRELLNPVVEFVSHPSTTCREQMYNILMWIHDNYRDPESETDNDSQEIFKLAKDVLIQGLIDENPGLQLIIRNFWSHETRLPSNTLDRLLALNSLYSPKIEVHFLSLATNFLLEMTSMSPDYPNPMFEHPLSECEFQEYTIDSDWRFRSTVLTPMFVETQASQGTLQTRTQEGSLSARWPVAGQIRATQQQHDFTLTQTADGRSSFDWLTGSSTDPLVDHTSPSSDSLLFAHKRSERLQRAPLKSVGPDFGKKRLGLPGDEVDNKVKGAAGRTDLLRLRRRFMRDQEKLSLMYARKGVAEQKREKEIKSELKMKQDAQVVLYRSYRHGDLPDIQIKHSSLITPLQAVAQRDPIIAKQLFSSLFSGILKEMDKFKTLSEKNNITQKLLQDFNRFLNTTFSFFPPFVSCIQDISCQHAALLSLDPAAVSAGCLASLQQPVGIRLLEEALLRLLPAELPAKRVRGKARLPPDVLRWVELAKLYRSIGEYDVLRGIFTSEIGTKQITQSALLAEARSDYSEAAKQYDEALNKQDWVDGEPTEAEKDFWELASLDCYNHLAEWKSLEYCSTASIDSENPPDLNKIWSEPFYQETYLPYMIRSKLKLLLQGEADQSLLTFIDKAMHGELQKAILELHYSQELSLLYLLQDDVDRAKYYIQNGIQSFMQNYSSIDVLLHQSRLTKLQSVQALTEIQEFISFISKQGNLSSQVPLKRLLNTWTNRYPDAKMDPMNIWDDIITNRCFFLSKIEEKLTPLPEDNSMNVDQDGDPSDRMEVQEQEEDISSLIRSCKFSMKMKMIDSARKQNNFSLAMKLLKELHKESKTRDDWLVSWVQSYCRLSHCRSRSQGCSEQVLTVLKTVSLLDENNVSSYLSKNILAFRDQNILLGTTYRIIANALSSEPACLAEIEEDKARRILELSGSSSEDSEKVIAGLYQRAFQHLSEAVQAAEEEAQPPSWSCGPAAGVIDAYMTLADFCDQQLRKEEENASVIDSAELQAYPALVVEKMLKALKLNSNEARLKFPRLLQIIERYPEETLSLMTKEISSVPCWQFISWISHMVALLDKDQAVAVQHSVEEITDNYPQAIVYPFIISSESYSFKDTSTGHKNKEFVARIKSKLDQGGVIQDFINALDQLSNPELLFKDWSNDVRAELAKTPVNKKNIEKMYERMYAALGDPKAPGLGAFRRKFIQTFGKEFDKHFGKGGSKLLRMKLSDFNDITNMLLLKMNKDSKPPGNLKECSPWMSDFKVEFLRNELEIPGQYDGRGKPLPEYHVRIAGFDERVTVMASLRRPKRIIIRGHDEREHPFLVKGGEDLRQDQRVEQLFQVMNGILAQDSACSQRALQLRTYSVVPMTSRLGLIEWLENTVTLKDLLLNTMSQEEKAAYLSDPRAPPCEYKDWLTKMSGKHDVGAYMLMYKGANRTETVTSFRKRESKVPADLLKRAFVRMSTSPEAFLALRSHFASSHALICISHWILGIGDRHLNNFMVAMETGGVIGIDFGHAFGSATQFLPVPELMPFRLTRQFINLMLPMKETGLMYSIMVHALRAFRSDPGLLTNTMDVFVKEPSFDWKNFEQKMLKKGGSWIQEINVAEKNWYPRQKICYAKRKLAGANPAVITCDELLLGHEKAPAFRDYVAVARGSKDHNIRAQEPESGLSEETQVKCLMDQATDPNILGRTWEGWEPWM

C[C@@H]1CN(c2cc(-c3n[nH]c4ccc(OC5(C)CC5)cc34)ncn2)C[C@H](C)O1 [MLi-2]
inactive: [1] 0% | [2] 21.6% | [3] 5.05% | [4] 11% | [5] 9.35% | [6] -0.0337% | [7] 12.7% | [8] 1.54% | [9] -0.899% | [10] 6.06% | [11] 20% | [12] 19%
